In publication PMC3985765 (Biochemistry, 2014):

Molecular target: T1, FlK (fluoroacetyl-CoA thioesterase) (Streptantibioticus cattleyicolor, UniProt Q1EMV2)
T1 sequence (Q1EMV2 1-139): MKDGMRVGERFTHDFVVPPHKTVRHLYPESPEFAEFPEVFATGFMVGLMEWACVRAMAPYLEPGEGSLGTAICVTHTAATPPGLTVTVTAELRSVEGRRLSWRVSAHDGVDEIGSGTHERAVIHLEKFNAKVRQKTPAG
Test: pre-steady-state rapid chemical quench, HPLC of CoA release
Assay type: biochemical
Conditions: Bis-Tris 100 mM pH 6.0; covalent acyl-enzyme on Glu 50

## CC(C)(COP(=O)(O)OP(=O)(O)OC[C@H]1O[C@@H](n2cnc3c(N)ncnc32)[C@H](O)[C@@H]1OP(=O)(O)O)[C@@H](O)C(=O)NCCC(=O)NCCSC(=O)CF [fluoroacetyl-CoA]
  pre-steady-state rapid chemical quench, HPLC of CoA release: we observed a burst phase of product formation consistent with enzyme acylation
